Data on 22 compounds can be found in patent publication US20180155344A1, “TRICYCLIC PIPERIDINE COMPOUNDS” (ACTELION PHARMACEUTICALS LTD, priority 2015, published 2018).

pIC50: −log10 of the molar value.

The target in the assay is T1, human TPH1 (Homo sapiens, UniProt P17752).
T1 sequence (P17752 1-444): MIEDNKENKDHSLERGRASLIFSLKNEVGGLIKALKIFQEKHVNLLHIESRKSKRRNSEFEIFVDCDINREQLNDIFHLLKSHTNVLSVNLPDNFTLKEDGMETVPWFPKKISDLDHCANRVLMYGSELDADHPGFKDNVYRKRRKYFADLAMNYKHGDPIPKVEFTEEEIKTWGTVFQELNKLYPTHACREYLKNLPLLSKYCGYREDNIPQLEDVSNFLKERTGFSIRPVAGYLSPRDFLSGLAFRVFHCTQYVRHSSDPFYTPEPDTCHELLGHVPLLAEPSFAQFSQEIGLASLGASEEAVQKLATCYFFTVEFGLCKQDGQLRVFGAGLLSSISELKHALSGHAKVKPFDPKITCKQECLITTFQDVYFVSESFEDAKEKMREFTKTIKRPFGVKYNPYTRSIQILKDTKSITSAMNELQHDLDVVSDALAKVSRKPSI
The experiment in a line: biochemical. From the text: Biochemical In Vitro Assay Using Fluorescence Readout
To generate the enzyme, full length human TPH1 is cloned into the plasmid pET20b(+) (Novagen) and expressed in E. coli. The bacterial cells are ruptured by sonication on ice and the lysate is cleared by centrifugation. The resulting protein in the pellet is re-extracted and TPH1 is purified from the obtained lysate by affinity chromatography using a pterin cosubstrate analog immobilized to the resin of the column. The protein is further purified by size exclusion chromatography to remove protein aggregates. The activity of TPH1 is determined by using a fluorescence assay. The enzyme activity assay is carried out at 15° C. with atmosphere oxygen for the duration of 60 minutes in a volume of 64 μl. The reaction is carried out in a 0.1 M Tris-HCl buffer, adjusted to pH 7.6, containing 1 mM DTT, 0.2 mg/mL catalase, 100 μM (±)-6-methyl-5,6,7,8-tetrahydropterine dihydrochloride, 40 μM L-tryptophan, and 40-80 nM of TPH1. The reaction is started by bringing together L-tryptophan with all the other reaction substituents and stopped by quenching with perchloric acid (HClO4). The amount of 5-hydroxy-L-tryptophan produced during the enzymatic reaction is determined by fluorescence readout. Fluorescence, as determined at 540 nm when excited at 300 nm wavelength, increases proportionally to the 5-hydroxy-L-tryptophan formed. Compounds are prepared as 10 mM stock solution in DMSO, then diluted in 384-well plates using DMSO followed by a transfer of the dilutions into the assay plate. Fluorescence is measured for each well and the fluorescence at 540 nm wavelength is compared to the fluorescence of the vehicle in place of compound. […] The calculated IC50 values may fluctuate depending on the daily biochemical assay performance. Fluctuations of this kind are known to those skilled in the art.
As a reminder, the pIC50 is the IC50 on a negative log10 scale, so that one unit is a factor of ten. Read a low pIC50 as a large IC50. For `O=C(COc1cccnc1C(F)(F)F)N1CCc2nc3ccccn3c2C1c1ccc(C2CC2)cc1F` (stereo not shown) [Example 1.5.6, 1-(1-(4-cyclopropyl-2-fluorophenyl)-3,4-dihydroimidazo[1,2-a:5,4-c′]dipyridin-2(1H)-yl)-2-((2-(trifluoromethyl)pyridin-3-yl)oxy)ethan-1-one], the pIC50 was 7.89.
For the compound `O=C(COc1ccc(N2CCOCC2)nc1Cl)N1CCc2nc3ccccn3c2C1c1cnc(N2CCOCC2)s1` (stereo not shown) [Example 1.6.1, 2-((2-chloro-6-morpholinopyridin-3-yl)oxy)-1-(1-(2-morpholinothiazol-5-yl)-3,4-dihydroimidazo[1,2-a:5,4-c′]dipyridin-2(1H)-yl)ethan-1-one], the pIC50 was 6.41.
In the case of `CN(C)Cc1csc(C2c3c(nc4ccccn34)CCN2C(=O)COc2ccc(N3CCOCC3)nc2Cl)c1` (stereo not shown) [Example 1.7.1, 2-((2-chloro-6-morpholinopyridin-3-yl)oxy)-1-(1-(4-((dimethylamino)methyl)thiophen-2-yl)-3,4-dihydroimidazo[1,2-a:5,4-c′]dipyridin-2(1H)-yl)ethan-1-one] it was 7.00; in that of `O=C(COc1ccc(N2CCOCC2)nc1Cl)N1CCc2nc3ccccn3c2C1c1nc(-c2ccccc2)no1` (stereo not shown) [Example 1.8.1, 2-((2-chloro-6-morpholinopyridin-3-yl)oxy)-1-(1-(3-phenyl-1,2,4-oxadiazol-5-yl)-3,4-dihydroimidazo[1,2-a:5,4-c′]dipyridin-2(1H)-yl)ethan-1-one], 7.80; in that of `COc1ccc(C2c3c(nc4ccccn34)CCN2C(=O)COc2ccc3ccccc3c2)cc1O` (stereo not shown) [Example 1.9.1, 1-(1-(3-hydroxy-4-methoxyphenyl)-3,4-dihydroimidazo[1,2-a:5,4-c′]dipyridin-2(1H)-yl)-2-(naphthalen-2-yloxy)ethan-1-one], 6.64.
Under `Cc1ccc(C2c3c(nc4ccccn34)CCN2C(=O)COc2ccc(Cl)cc2Cl)cc1C` (stereo not shown) [Example 1.10.1, 2-(2,4-dichlorophenoxy)-1-(1-(3,4-dimethylphenyl)-3,4-dihydroimidazo[1,2-a:5,4-c′]dipyridin-2(1H)-yl)ethan-1-one] stands 6.35; under `O=C(COc1ccc(N2CCOCC2)nc1Cl)N1CCc2nc3ccccn3c2C1c1ccc(Cl)nc1F` (stereo not shown) [Example 1.11.1, 1-(1-(6-chloro-2-fluoropyridin-3-yl)-3,4-dihydroimidazo[1,2-a:5,4-c′]dipyridin-2(1H)-yl)-2-((2-chloro-6-morpholinopyridin-3-yl)oxy)ethan-1-one], 8.15; under `CCc1ncccc1OCC(=O)N1CCc2nc3ccccn3c2C1c1ccc(Cl)nc1F` (stereo not shown) [Example 1.11.2, 1-(1-(6-chloro-2-fluoropyridin-3-yl)-3,4-dihydroimidazo[1,2-a:5,4-c′]dipyridin-2(1H)-yl)-2-((2-ethylpyridin-3-yl)oxy)ethan-1-one], 6.91.
In the case of `CCc1nc(C)ccc1OCC(=O)N1CCc2nc3ccccn3c2C1c1ccc(Cl)nc1F` (stereo not shown) [Example 1.11.3, 1-(1-(6-chloro-2-fluoropyridin-3-yl)-3,4-dihydroimidazo[1,2-a:5,4-c′]dipyridin-2(1H)-yl)-2-((2-ethyl-6-methylpyridin-3-yl)oxy)ethan-1-one] it was 6.62; in that of `O=C(COc1ccc(N2CCOCC2)nc1Cl)N1CCc2nc3ccccn3c2C1c1ncc(C2CC2)cc1F` (stereo not shown) [Example 1.12.1, 2-((2-chloro-6-morpholinopyridin-3-yl)oxy)-1-(1-(5-cyclopropyl-3-fluoropyridin-2-yl)-3,4-dihydroimidazo[1,2-a:5,4-c′]dipyridin-2(1H)-yl)ethan-1-one], 8.10.
As to `O=C(COc1ccc(N2CCOCC2)cc1Cl)N1CCc2nc3ccccn3c2C1c1ncc(C2CC2)cc1F` (stereo not shown) [Example 1.12.2, 2-(2-chloro-4-morpholinophenoxy)-1-(1-(5-cyclopropyl-3-fluoropyridin-2-yl)-3,4-dihydroimidazo[1,2-a:5,4-c′]dipyridin-2(1H)-yl)ethan-1-one], the pIC50 was 7.64.
In the case of `CCc1nc(C)ccc1OCC(=O)N1CCc2nc3ccccn3c2C1c1ncc(C2CC2)cc1F` (stereo not shown) [Example 1.12.3, 1-(1-(5-cyclopropyl-3-fluoropyridin-2-yl)-3,4-dihydroimidazo[1,2-a:5,4-c′]dipyridin-2(1H)-yl)-2-((2-ethyl-6-methylpyridin-3-yl)oxy)ethan-1-one] it was 6.84.
Under `O=C(COc1ccc(N2CCOCC2)nc1Cl)N1CCc2nc3ccccn3c2C1c1ccc(C2CC2)nc1F` (stereo not shown) [Example 1.13.1, 2-((2-chloro-6-morpholinopyridin-3-yl)oxy)-1-(1-(6-cyclopropyl-2-fluoropyridin-3-yl)-3,4-dihydroimidazo[1,2-a:5,4-c′]dipyridin-2(1H)-yl)ethan-1-one] stands 8.10; under `O=C(COc1ccc(N2CCOCC2)nc1Cl)N1CCc2nc3ccccn3c2C1c1ncc(Cl)cc1F` (stereo not shown) [Example 1.14.1, 1-(1-(5-chloro-3-fluoropyridin-2-yl)-3,4-dihydroimidazo[1,2-a:5,4-c′]dipyridin-2(1H)-yl)-2-((2-chloro-6-morpholinopyridin-3-yl)oxy)ethan-1-one], 8.40.
In the case of `COC(=O)c1ccc(OCC(=O)N2CCc3nc4ccccn4c3[C@@H]2c2ncc(Cl)cc2F)c(Cl)n1` [Example 1.14.2, methyl (R)-6-chloro-5-(2-(1-(5-chloro-3-fluoropyridin-2-yl)-3,4-dihydroimidazo[1,2-a:5,4-c′]dipyridin-2(1H)-yl)-2-oxoethoxy)picolinate], the pIC50 is 6.65.
In the case of `COC(=O)c1ccc(C2c3c(nc4ccccn34)CCN2C(=O)COc2ccc(NS(C)(=O)=O)nc2Cl)c(F)c1` (stereo not shown) [Example 1.15.1, methyl-4-(2-(2-((2-chloro-6-(methylsulfonamido)pyridin-3-yl)oxy)acetyl)-1,2,3,4-tetrahydroimidazo[1,2-a:5,4-c′]dipyridin-1-yl)-3-fluorobenzoate] it was 7.15; in that of `COC(=O)c1ccc(C2c3c(nc4ccccn34)CCN2C(=O)COc2ccc(C(=O)NC3CC3)nc2Cl)c(F)c1` (stereo not shown) [Example 1.15.2, methyl-4-(2-(2-((2-chloro-6-(cyclopropylcarbamoyl)pyridin-3-yl)oxy)acetyl)-1,2,3,4-tetrahydroimidazo[1,2-a:5,4-c′]dipyridin-1-yl)-3-fluorobenzoate], 7.31.
In the case of `CC(C)(O)c1ccc(C2c3c(nc4ccccn34)CCN2C(=O)COc2ccc(C(=O)NC3CC3)nc2Cl)c(F)c1` (stereo not shown) [Example 1.16.1, 6-chloro-N-cyclopropyl-5-(2-(1-(2-fluoro-4-(2-hydroxypropan-2-yl)phenyl)-3,4-dihydroimidazo[1,2-a:5,4-c′]dipyridin-2(1H)-yl)-2-oxoethoxy)picolinamide] it was 6.61.
In the case of `CC(C)(O)c1ccc(C2c3c(nc4ccccn34)CCN2C(=O)COc2ccc(NS(C)(=O)=O)nc2Cl)c(F)c1` (stereo not shown) [Example 1.16.2, N-(6-chloro-5-(2-(1-(2-fluoro-4-(2-hydroxypropan-2-yl)phenyl)-3,4-dihydroimidazo[1,2-a:5,4-c′]dipyridin-2(1H)-yl)-2-oxoethoxy)pyridin-2-yl)methanesulfonamide], the pIC50 is 6.26.
For `COC(C)(C)c1ccc(C2c3c(nc4ccccn34)CCN2C(=O)COc2ccc(C(=O)NC3CC3)nc2Cl)c(F)c1` (stereo not shown) [Example 1.17.1, 6-chloro-N-cyclopropyl-5-(2-(1-(2-fluoro-4-(2-methoxypropan-2-yl)phenyl)-3,4-dihydroimidazo[1,2-a:5,4-c′]dipyridin-2(1H)-yl)-2-oxoethoxy)picolinamide], the pIC50 is 6.85.
In the case of `COC(C)(C)c1ccc(C2c3c(nc4ccccn34)CCN2C(=O)COc2ccc(NS(C)(=O)=O)nc2Cl)c(F)c1` (stereo not shown) [Example 1.17.2, N-(6-chloro-5-(2-(1-(2-fluoro-4-(2-methoxypropan-2-yl)phenyl)-3,4-dihydroimidazo[1,2-a:5,4-c′]pyridin-2(1H)-yl)-2-oxoethoxy)pyridin-2-yl)methanesulfonamide], the pIC50 is 6.23.
`COCc1ccc(C2c3c(nc4ccccn34)CCN2C(=O)COc2ccc(C(=O)NC3CC3)nc2Cl)c(F)c1` (stereo not shown) [Example 1.18.1, 6-chloro-N-cyclopropyl-5-(2-(1-(2-fluoro-4-(methoxymethyl)phenyl)-3,4-dihydroimidazo[1,2-a:5,4-c′]dipyridin-2(1H)-yl)-2-oxoethoxy)picolinamide] had a pIC50 of 7.42.
